Assay [1] is described as follows: Antioxidant activity assessed as ABTS free radical scavenging activity by spectrophotometry. More on the design: concentration or dose not given beside the values. It counts as functional.
The test system of the next assay is WI-38. The assay can be described thus: Antiproliferative activity against human WI38 cells after 48 hrs by MTT assay. It counts as functional, cell-based. The following applies: WI-38, 48 h. (Tetrazolium dyes change colour on reduction, which living cells bring about.)
In assay [2] the test system is MCF7. The assay is described as follows: Cell cycle arrest in human MCF7 cells assessed as reduction in S-phase accumulation at IC50 after 24 hrs by FACs analysis (reference value: 34.1+/-1.1 %). It is filed as functional. More on the design: scale not given: the % may be the effect or the level left.
The subject of assay [3] is MCF7. The assay can be described thus: Antiproliferative activity against human MCF7 cells after 48 hrs by MTT assay. It counts as functional, cell-based. Particulars: MCF7, 48 h.
The next assay relates to PBL. The assay can be described thus: Immunostimulant activity in PHA-stimulated human PBL assessed as lymphocyte transformation at 2 mM after 72 hrs by Giemsa staining method. It counts as functional.
The test system of assay [4] is MCF7. The assay can be described thus: Cell cycle arrest in human MCF7 cells assessed as increase in pre-G apoptotic fraction at IC50 after 24 hrs by FACs analysis relative to untreated control. It counts as functional, cell-based.
For a further assay, the system named is Vero. The assay is described as follows: Antiproliferative activity against african green monkey Vero cells after 48 hrs by MTT assay. It counts as functional, cell-based. Particulars: Chlorocebus sabaeus.
The test system of assay [5] is MCF7. The assay is described as follows: Cell cycle arrest in human MCF7 cells assessed as increase in G0/G1-phase accumulation at IC50 after 24 hrs by FACs analysis (reference value: 55.6+/-0.6 %). It is filed as functional.
For assay [6], the system named is MCF7. The assay can be described thus: Cell cycle arrest in human MCF7 cells assessed as reduction in G2/M-phase accumulation at IC50 after 24 hrs by FACs analysis relative to untreated control. It counts as functional, cell-based.
The subject of the next assay is HepG2. The assay can be described thus: Antiproliferative activity against human HepG2 cells after 48 hrs by MTT assay. The following applies: HepG2, 48 h. It counts as functional, cell-based.
In assay [7] the test system is MCF7. The assay can be described thus: Cell cycle arrest in human MCF7 cells assessed as increase in G0/G1-phase accumulation at IC50 after 24 hrs by FACs analysis. It counts as functional, cell-based.
The test system of assay [8] is MCF7. The assay can be described thus: Cell cycle arrest in human MCF7 cells assessed as reduction in S-phase accumulation at IC50 after 24 hrs by FACs analysis. It counts as functional, cell-based.

Calls of active or inactive are those of the source. No cut-off for these calls is given here.

With `COc1cc(O)c2c(=O)cc(-c3ccc(OC)c(OC)c3)oc2c1`, the Activity in assay [1] was 45.8%; in the assay on MCF7 [2], 13%; in the assay with PBL, 65%; with MCF7 [5], 71.3%. Also, the concentration for half-maximal inhibition (IC50) stood at 105 µM in the assay with WI-38, 10 µM with MCF7 [3], 125 µM with Vero and 15 µM in the assay with HepG2. For the same compound, the result in the assay on MCF7 [4] and with MCF7 [6] was Active.
Take `O=c1[nH]cc(F)c(=O)[nH]1` [FLUOROURACIL]: the half-inhibitory concentration (IC50) stood at 10 µM in the assay with WI-38, 8 µM with Vero and 10 µM in the assay on HepG2. Besides, the result in the assay with MCF7 [7], in the assay with MCF7 [4] and in the assay on MCF7 [8] was Active.
On to `COc1cc(-c2cc(=O)c3c(O)cc(OC)c(OC)c3o2)cc(OC)c1OC`, for which the Activity in assay [1] is 54.2%; in the assay on PBL, 45%. The IC50 in the assay with WI-38 was 100 µM; in the assay with MCF7 [3], 20 µM; in the assay on Vero, 105 µM; in the assay on HepG2, 25 µM.
On to `COc1cc(-c2cc(=O)c3cc(OC)c(OC)c(O)c3o2)cc(O)c1OC`, for which the Activity in assay [1] is 56.8%; in the assay with PBL it was 35%. Moreover, the IC50 was 105 µM in the assay on WI-38, 25 µM in the assay on MCF7 [3], 85 µM in the assay on Vero and 30 µM in the assay with HepG2.
As to `COc1ccc(-c2cc(=O)c3cc(OC)c(O)c(OC)c3o2)cc1OC`, the Activity turned out to be 52.7% in [1], 15.6% in the assay on MCF7 [2], 55% in the assay with PBL and 73.4% in the assay with MCF7 [5]. Further, the IC50 in the assay on WI-38 is 115 µM; in the assay with MCF7 [3], 15 µM; in the assay with Vero, 95 µM; in the assay on HepG2 it was 20 µM. The outcome in the assay with MCF7 [6] was Active.
Turning to `COc1ccc(-c2oc3c(OC)c(OC)c(OC)c(O)c3c(=O)c2OC)cc1` [5-HYDROXYAURANETIN], the Activity came to 71.1% in [1] and 25% with PBL. The half-inhibitory concentration (IC50) in the assay with WI-38 was determined as 80 µM; in the assay on MCF7 [3], 30 µM; in the assay with Vero, 90 µM; in the assay on HepG2, 35 µM.
On to `COc1ccc(-c2cc(=O)c3c(O)c(OC)c(OC)c(O)c3o2)cc1OC`, for which the Activity in [1] was 78.3%; with PBL, 15%. Besides, the half-inhibitory concentration (IC50) in the assay with WI-38 is 95 µM; in the assay on MCF7 [3], 35 µM; in the assay on Vero, 100 µM; in the assay with HepG2, 45 µM.
Consider `C=C1C[C@]23CC[C@H]4C(CO)(CO)C(=O)CC[C@]4(C)[C@H]2CC[C@@H]1C3`, for which the Activity turned out to be 34.3% in assay [1] and 10% with PBL. Also, the half-maximal inhibitory concentration (IC50) in the assay on WI-38 amounted to 90 µM; with MCF7 [3], 40 µM; with Vero, 90 µM; with HepG2, 50 µM.
On to `COc1ccc(-c2cc(=O)c3c(O)c(OC)c(OC)c(OC)c3o2)cc1` [GARDENIN B], for which the figures for the Activity (in [1]; in the assay with PBL) were 75.4% and 20%, respectively. Moreover, the IC50 was 75 µM with WI-38, 30 µM with MCF7 [3], 85 µM in the assay on Vero and 40 µM in the assay with HepG2.
On to `O=C1O[C@H]([C@@H](O)CO)C(O)=C1O`, for which, in assay [1], the Activity amounted to 80%.

One may read the IC50 as the point on the concentration scale where inhibition reaches its midpoint.
